Data as given in EP0002426B1, “Antiperspirant” (priority 1977, dated 1979).
“And” between values parts separate entries of the source, which are not always exact repeats. Equal entries are not always repeated. Where two headings read alike, the source gives them in different places.

Tests used:
[1] = system: adrenaline-induced local sweating; assay: OPT-test of sweat response after intradermal adrenaline, epidermal application of local anesthetic emulsions on the forearm; type: in vivo, volunteers; details: for sweat response, induced by intracutaneous administration of adrenaline: 12 volunteers, epidermal application; for number of black-coloured sweat pores (OPT-test), M1-10: mean of patients 1-10; for number of black-coloured sweat pores (OPT-test), M1-12: mean of patients 1-12
Experimental: (§1) The anti perspiration effect of the present invention was determined in an experimental investigation of dermal analgesia and influence upon adrenaline-induced local sweating by epidermal application of different local anesthetic formulations.
(§2) 12 healthy medical students took part in the study.
(§3) Pre-formed pads, consisting of cellulose fibres, 2 times 2 centimetres, were soaked by a standardized procedure in either an emulsion containing 5% lidocaine base + 5% prilocaine base, an emulsifying agent and water, 10% lidocaine base in the same vehicle, 10% prilocaine base in the same vehicle, or a placebo emulsion containing the emulsifying agent and water only. On one forearm of the volunteer the four different emulsions were applied under occlusive dressings consisting of an impervious tape, while on the other arm the four emulsions were applied under a non-occlusive dressing, using surgical tape (3M). A certain distance between the application areas was chosen in order to avoid any risk of interference between them.
(§4) On the arms of the volunteers 11 and 12 the emulsions were applied directly to the skin, with no cellulose pads, but with occlusive and non-occlusive dressings applied as in the other volunteers.
(§5) The application time for the pads was 60 minutes.
(§6) Immediately after removal of the pads, the square areas under the two types of dressing were marked at the edges. A line was also marked within each applied area dividing them into two identical triangles. One of these surfaces were then used by pin-prick experiments, the other for studying the sweat response.
(§7) Just under the apex of each test area triangle an intradermal wheal 0.1 ml adrenaline 1:10 000 was injected. Pain on injection was noted. The test area was then swabbed with OPT (5% orthophthaldialdehyde in xylol). After drying the OPT-applied area a plastic ring with adhesive on the back side was placed over the visible vasoconstricted area caused by the adrenaline effect, within the test triangle previously covered by the test compositions. The number of black-coloured sweat pores within the standardized diameter hole in the plastic rings was counted under a direct vision microscope.

dermal analgesia = assay: Pin-prick test of dermal analgesia after epidermal application of local anesthetic emulsions on the forearm; type: in vivo, volunteers; details: for Pin-prick test, M1–10: mean of patients 1-10 (out of 10 pin-pricks); for Pin-prick test, M1–12: mean of patients 1-12; for dermal analgesia, effectiveness versus placebo emulsion: under occlusion as well as under a non-occlusive bandage
Experimental: as §1, §2, §3, §4, §5, §6
The pin-pricking procedure was carried out with disposable dental needles. In each of the test areas 10 pin-pricks were made. 10/10 represents full analgesia, 0/10 no analgesia.

[2] = Pain on intradermal injection of adrenaline solution in the test areas; type: in vivo; details: 0.1 ml adrenaline 1:10 000 in the test area; all volunteers
Experimental: as §7
All volunteers reported pain at the intradermal injection of adrenaline solution at the placebo, the lidocaine and the prilocaine areas but not at the lidocaine-prilocaine areas.

[3] = cited from earlier work
[4] = Non-Occlusion, individual Patient No 1-10, soaked cellulose pads, 60 minutes
[5] = Non-Occlusion, individual Patient No 11, 12, emulsions applied directly to the skin, no cellulose pads
[6] = Occlusion, individual Patient No 1-10, soaked cellulose pads, 60 minutes, L—P 5%+5%, L 10%, P 10% emulsion
[7] = Occlusion, individual Patient No 11, 12, emulsions applied directly to the skin, no cellulose pads
[8] = Non-Occlusion, individual Patient No 1-10, pads, 60 minutes, 10/10 full analgesia, 0/10 no analgesia
[9] = Occlusion, individual Patient No 1-10, pads, 60 minutes, 10 pin-pricks, 10/10 full analgesia, 0/10 no analgesia
[10] = total concentration of 10%, aqueous emulsion

Row | SMILES | sweat response, induced by intracutaneous administration of adrenaline [1] | number of black-coloured sweat pores (OPT-test) [1, 4] | number of black-coloured sweat pores (OPT-test) [1, 5] | number of black-coloured sweat pores (OPT-test), M1-10 ([1]; Non-Occlusion) | number of black-coloured sweat pores (OPT-test), M1-12 ([1]; Non-Occlusion) | number of black-coloured sweat pores (OPT-test) [1, 6] | number of black-coloured sweat pores (OPT-test) [1, 7] | number of black-coloured sweat pores (OPT-test), M1-10 ([1]; Occlusion) | number of black-coloured sweat pores (OPT-test), M1-12 ([1]; Occlusion) | sweat response, effectiveness versus placebo ([1]; under non-occlusive bandage) | sweat response, effectiveness versus placebo ([1]; under occlusive bandage) | Pin-prick test (dermal analgesia; [8]) | Pin-prick test (dermal analgesia; [5]) | Pin-prick test, M1–10 (dermal analgesia; Non-Occlusion) | Pin-prick test, M1–12 (dermal analgesia; Non-Occlusion) | Pin-prick test (dermal analgesia; [9]) | Pin-prick test (dermal analgesia; [7]) | Pin-prick test, M1–10 (dermal analgesia; Occlusion) | Pin-prick test, M1–12 (dermal analgesia; Occlusion) | dermal analgesia, effectiveness versus placebo emulsion (dermal analgesia) | also measured
1 | CCN(CC)CC(=O)Nc1c(C)cccc1C [L, Diethylaminoacet-2',6'-xylidide] | partly blocked | 42 and 24 (4×) and 29 and 27 and 25 and 19 and 32 | 22 and 33 | 27.0 | 27.08 | 22 (2×) and 25 and 20 (2×) and 24 (2×) and 16 (2×) and 28 | 12 and 26 | 21.7 | 21.25 | more effective than placebo | significantly more effective than placebo | 0/10 (9×) and 1/10 | 0/10 | 0.10 | 0.08 | 0/10 (5×) and 2/10 (3×) and 5/10 and 3/10 | 8/10 and 6/10 | 1.40 | 2.33 | insignificantly more effective than the placebo emulsion | pain at the intradermal injection of adrenaline solution [2]: reported pain
2 | CCN(CC)CCOC(=O)c1ccc(N)cc1 [procaine] |  |  |  |  |  |  |  |  |  |  |  |  |  |  |  |  |  |  |  |  | antihydrotic effect ([3]; administered electrophoretically): possesses an antihydrotic effect; antihydrotic effect ([3]; without electrophoresis, only topically): will not give any antihydrotic effect
3 | CCCNC(C)C(=O)Nc1ccccc1C (stereo not shown) [P, 2-propylamino-N-(2-tolyl)propionamide] | partly blocked | 46 and 18 (2×) and 34 and 24 and 26 (2×) and 25 and 21 and 40 | 14 and 20 | 27.8 | 26.0 | 24 (2×) and 30 and 17 and 52 and 18 and 22 and 15 and 28 | 24 and 16 | 25.6 | 24.54 | more effective than placebo | significantly more effective than placebo | 1/10 and 0/10 (8×) and 6/10 | 2/10 and 0/10 | 0.70 | 0.75 | 2/10 and 0/10 (6×) and 10/10 and 1/10 | 7/10 and 9/10 | 1.44 | 2.64 | insignificantly more effective than the placebo emulsion | sweat response inhibition, compared among the tested formulations [1, 10]: less effective; dermal analgesia (pin-pricking), compared among the tested formulations (dermal analgesia; [10]): less effective; pain at the intradermal injection of adrenaline solution [2]: reported pain
